Assay results taken from patent US10294202B2, “Pyrrolidinones as herbicides” (FMC Corporation, priority 2013, dated 2019).

Legend:
crabgrass, large = assay: Test C pre-/postemergence herbicide test; assay type: in vivo, Digitaria sanguinalis
Procedure, shortened: (§1)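 Visual rating, 0 (no effect) to 100 (complete control), versus untreated controls after 13 to 15 days in the greenhouse. Pre: seeds in loam/sand, sprayed at planting. Post: 1- to 4-leaf plants (2 to 18 cm) in peat-based mix. Compounds in non-phytotoxic solvent plus surfactant.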

corn = assay: Test A pre-/postemergence herbicide test; assay type: in vivo, Zea mays
Procedure, shortened: (§2)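 Seeds sown in loam soil/sand blend received a preemergence directed soil spray of test chemical in non-phytotoxic solvent with surfactant; postemergence plants (2–10 cm, one- to two-leaf stage) were sprayed with the same formulation. After about 10 days in greenhouse, injury was rated visually versus untreated controls, 0 (no effect) to 100 (complete control).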

giant foxtail = assay: Test A pre-/postemergence herbicide test; assay type: in vivo, Setaria faberii
Procedure, shortened: as §2

barnyardgrass [1] = assay: Test B flooded paddy test; assay type: in vivo, Echinochloa crus-galli; conditions: 250 g ai/ha, Flood; scale of 0 to 100 where 0 is no effect and 100 is complete control
Procedure, shortened: (§3)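 Scored visually 0–100 (0 no effect, 100 complete control) versus controls after 13 to 15 greenhouse days. Treatment: compound added to paddy water kept 3 cm above soil, on 2-leaf-stage plants.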

ducksalad = assay: Test B flooded paddy test; assay type: in vivo, Heteranthera limosa; conditions: 250 g ai/ha, Flood; scale of 0 to 100 where 0 is no effect and 100 is complete control
Procedure, shortened: as §3

morningglory = assay: Test C pre-/postemergence herbicide test; assay type: in vivo, Ipomoea coccinea
Procedure, shortened: as §1

soybean = assay: Test C pre-/postemergence herbicide test; assay type: in vivo, Glycine max
Procedure, shortened: as §1

ragweed = assay: Test C pre-/postemergence herbicide test; assay type: in vivo, Ambrosia elatior
Procedure, shortened: as §1

barnyardgrass [2] = assay: Test A pre-/postemergence herbicide test; assay type: in vivo, Echinochloa crus-galli
Procedure, shortened: as §2

blackgrass = assay: Test C pre-/postemergence herbicide test; assay type: in vivo, Alopecurus myosuroides
Procedure, shortened: as §1

rice = assay: Test B flooded paddy test; assay type: in vivo, Oryza sativa; conditions: 250 g ai/ha, Flood; scale of 0 to 100 where 0 is no effect and 100 is complete control
Procedure, shortened: as §3

sedge, umbrella = assay: Test B flooded paddy test; assay type: in vivo, Cyperus difformis; conditions: 250 g ai/ha, Flood; scale of 0 to 100 where 0 is no effect and 100 is complete control
Procedure, shortened: as §3

[3] = Postemergence, 31 g ai/ha, scale 0 (no effect) to 100 (complete control)
[4] = Postemergence, 62 g ai/ha, scale 0 to 100 (0 no effect, 100 complete control)
[5] = Postemergence, 125 g ai/ha, scale 0 to 100 (0 no effect, 100 complete control)
[6] = Postemergence, 250 g ai/ha, scale 0 to 100 (0 no effect, 100 complete control)
[7] = Preemergence, 31 g ai/ha, scale 0 to 100 (0 no effect, 100 complete control)
[8] = Preemergence, 62 g ai/ha, scale 0 to 100
[9] = Preemergence, 125 g ai/ha, scale 0 to 100 (0 no effect, 100 complete control)
[10] = Preemergence, 250 g ai/ha, scale 0 to 100 (0 no effect, 100 complete control)
[11] = Postemergence, 1000 g ai/ha, 0 to 100 scale (0 no effect, 100 complete control)
[12] = Preemergence, 1000 g ai/ha, visual rating on 0 to 100 scale (0 no effect, 100 complete control), approx. 10 days
[13] = Preemergence, 31 g ai/ha, scale 0 to 100, 0 is no effect and 100 is complete control
[14] = Postemergence, 125 g ai/ha, 0 to 100 scale, 0 no effect, 100 complete control
[15] = Postemergence, 500 g ai/ha, 0 to 100 scale (0 no effect, 100 complete control)
[16] = Preemergence, 125 g ai/ha, visual rating on 0 to 100 scale (0 no effect, 100 complete control)
[17] = preemergence, 500 g ai/ha, 0 to 100 scale

O=C1NCC(c2cc(F)c(F)c(F)c2)C1C(=O)Nc1ccccc1F (racemic) [Compound 34]
Plant response rating, Crabgrass, Large (crabgrass, large; [3]): 0 | Plant response rating, Crabgrass, Large (crabgrass, large; [4]): 30 | Plant response rating, Crabgrass, Large (crabgrass, large; [5]): 40 | Plant response rating, Crabgrass, Large (crabgrass, large; [6]): 60 | Crabgrass, Large plant response rating (crabgrass, large; [7]): 95 | Plant response rating, Crabgrass, Large (crabgrass, large; [8]): 98 | Plant response rating, Crabgrass, Large (crabgrass, large; [9]): 100 | Plant response rating, Crabgrass, Large (crabgrass, large; [10]): 100 | Plant response rating, Corn (corn; [11]): 50 | Plant response rating, Corn (corn; [12]): 30 | Plant response rating, Foxtail, Giant (giant foxtail; [11]): 90 | Plant response rating, Foxtail, Giant (giant foxtail; [12]): 90 | Plant response rating, Barnyardgrass (barnyardgrass [1]): 0 | Plant response rating, Ducksalad (ducksalad): 95 | Plant response rating, Morningglory (morningglory; [3]): 0 | Plant response rating, Morningglory (morningglory; [4]): 5 | Plant response rating, Morningglory (morningglory; [5]): 5 | Plant response rating, Morningglory (morningglory; [6]): 10 | Plant response rating, Morningglory (morningglory; [8]): 0 | Plant response rating, Morningglory (morningglory; [9]): 5 | Plant response rating, Soybean (soybean; [3]): 0 | Plant response rating, Soybean (soybean; [4]): 0 | Plant response rating, Soybean (soybean; [5]): 5 | Plant response rating, Soybean (soybean; [6]): 10 | Plant response rating, Soybean (soybean; [8]): 0 | Plant response rating, Soybean (soybean; [9]): 5 | Plant response rating, Ragweed (ragweed; [3]): 5 | Plant response rating, Ragweed (ragweed; [4]): 5 | Plant response rating, Ragweed (ragweed; [5]): 5 | Plant response rating, Ragweed (ragweed; [6]): 5 | Plant response rating, Ragweed (ragweed; [8]): 0 | Plant response rating, Ragweed (ragweed; [9]): 0 | Plant response rating, Barnyardgrass (barnyardgrass [2]; [11]): 90 | Plant response rating, Barnyardgrass (barnyardgrass [2]; [12]): 90 | Plant response rating, Blackgrass (blackgrass; [3]): 0 | Plant response rating, Blackgrass (blackgrass; [4]): 0 | Plant response rating, Blackgrass (blackgrass; [5]): 0 | Plant response rating, Blackgrass (blackgrass; [6]): 0 | Blackgrass plant response rating (blackgrass; [7]): 0 | Plant response rating, Blackgrass (blackgrass; [8]): 0 | Plant response rating, Blackgrass (blackgrass; [9]): 10 | Plant response rating, Blackgrass (blackgrass; [10]): 45 | Plant response rating, Rice (rice): 0 | Plant response rating, Sedge, Umbrella (sedge, umbrella): 0

O=C1NCC(c2cccc(Br)c2)C1C(=O)Nc1ccccc1F (centres unmarked) [Compound 66]
Crabgrass, Large plant response rating (crabgrass, large; [13]): 90 | Plant response rating, Crabgrass, Large (crabgrass, large; [8]): 95 | Plant response rating, Crabgrass, Large (crabgrass, large; [9]): 98 | Plant response rating, Crabgrass, Large (crabgrass, large; [10]): 98 | Plant response rating, Corn (corn; [14]): 20 | Plant response rating, Corn (corn; [15]): 80 | Corn plant response rating (corn; [16]): 20 | Plant response rating, Corn (corn; [17]): 20 | Plant response rating, Foxtail, Giant (giant foxtail; [14]): 70 | Plant response rating, Foxtail, Giant (giant foxtail; [15]): 80 | Foxtail, Giant plant response rating (giant foxtail; [16]): 80 | Plant response rating, Foxtail, Giant (giant foxtail; [17]): 90 | Plant response rating, Barnyardgrass (barnyardgrass [1]): 0 | Plant response rating, Ducksalad (ducksalad): 75 | Morningglory plant response rating (morningglory; [13]): 15 | Plant response rating, Morningglory (morningglory; [8]): 25 | Plant response rating, Morningglory (morningglory; [9]): 35 | Soybean plant response rating (soybean; [13]): 15 | Plant response rating, Soybean (soybean; [8]): 20 | Plant response rating, Soybean (soybean; [9]): 20 | Ragweed plant response rating (ragweed; [13]): 10 | Plant response rating, Ragweed (ragweed; [8]): 20 | Plant response rating, Ragweed (ragweed; [9]): 25 | Plant response rating, Barnyardgrass (barnyardgrass [2]; [14]): 80 | Plant response rating, Barnyardgrass (barnyardgrass [2]; [15]): 80 | Barnyardgrass plant response rating (barnyardgrass [2]; [16]): 80 | Plant response rating, Barnyardgrass (barnyardgrass [2]; preemergence, 500 g ai/ha, 0 to 100 scale (0 no effect, 100 complete control)): 90 | Blackgrass plant response rating (blackgrass; [13]): 0 | Plant response rating, Blackgrass (blackgrass; [8]): 0 | Plant response rating, Blackgrass (blackgrass; [9]): 0 | Plant response rating, Blackgrass (blackgrass; [10]): 20 | Plant response rating, Rice (rice): 0 | Plant response rating, Sedge, Umbrella (sedge, umbrella): 50
